Data: patent US8008354B2, “Death receptor sensitizing compounds and methods of use therefor” (Burnham Institute for Medical Research, priority 2006, dated 2011)
Where a name gives a salt, the structure may show the parent alone.

Tests used:
PPC-1 cells = test: MTT cell viability of PPC-1 cells treated with compound with or without CH-11 anti-FAS antibody; type: cell-based; conditions: for LD50 (μM) (PPCl, CH-11): PPC-1 cells with CH-11 100 ng/mL, MTT 24 hours, LD50 = concentration that reduces cell viability by 50%; for IC50: Homo sapiens, PPC-1, 24 h, compound alone without CH-11, MTT 24 hours, read-out: LD50 (μM) PPCl
Procedure: FIGS. 2A-C. […] PPC-1 cells (1×10^4) were seeded in 96 well plates. The next day, cells were treated with increasing concentrations of the sensitizing compounds with (open squares) and without (closed squares) CH-11 antibody (100 ng/mL). Cell viability was measured 24 hours later by MTT assay. Cell viability is expressed as a mean percentage of untreated cells+SD (n=3). The Chembridge identification numbers of the compounds are provided.
High throughput screening. […] PPC-1 cells (1×10^4) were seeded overnight into 96 well, flat-bottom plates (Costar, Cambridge, Mass.) in 100 μL of medium containing 2.5% FCS. […] CH-11 antibody (100 ng/mL) was then added, and the cells were incubated for 24 hours before assessing cell viability by a 3-(4,5-Dimethylthiazol-2-yl)-2,5-diphenyltetrazolium Bromide (MTT) dye reduction assay (Sigma).
Cell death assays. […] Absorbance readings were plotted against a standard curve to derive the corresponding cell number, and cell viability was expressed as a percentage relative to untreated cells.

FLIP mRNA = FLIP mRNA by quantitative RT-PCR; type: cell-based, human; conditions: for expression of FLIP mRNA: Example 1, responding and non-responding cell lines, 24 hours, long isoform normalized for GAPDH
Procedure: FIG. 7. Effect of FAS-sensitizing compounds on levels of FLIP protein and DISC activation. (A) PPC-1 cells (2×10^5) were seeded into 35 mm plates and treated the next day with various FAS-sensitizing compounds (30 μM), with (+) or without (−) CH-11 antibody (100 ng/mL). As a positive control, cells were treated with CDDO (5 μM). Cell lysates were prepared 24 hours later, normalized for total protein content, and analyzed by SDS-PAGE/immunoblotting using antibodies specific for FLIP or a-tubulin. (B) PPC-1, OVCAR-3, T47D, MDA-MB-468 and DU 145 cells (2×10^5) were seeded into 35 mm plates and treated the next day with 5809354 (40 μM). Cell lysates were prepared 24 hours after treatment, normalized for total protein and analyzed by SDS-PAGE/immunoblotting using antibodies specific for FLIP or β-actin. (C) PPC-1, OVCAR-3, T47D, and DU 145 cells (2×10^5) were seeded into 35 mm plates and treated the next day with 5809354 (40 μM) (black bars) or buffer control (white bars). mRNA was extracted 24 hours after treatment. Levels of the long isoform of FLIP and GAPDH were detected by quantitative RT-PCR. Levels of FLIP were normalized for GAPDH expression and expressed as a mean fold change+SD over buffer treated cells. (D) PPC-1 cells (2×10^5) were seeded into 35 mm plates and treated the next day with various FAS-sensitizing compounds (30 μM) with (+) or without (−) CH-11 (100 ng/mL). Cell lysates were prepared 24 hours after treatment, normalized for total protein, and analyzed by SDS-PAGE/immunoblotting using antibodies specific for caspase-8 and β-actin.
FIG. 13. Small molecule down-regulation of FLIP sensitizes prostate cancer cells to anoikis. (A) PPC-1 cells were seeded overnight in adherent conditions and then treated with increasing concentrations of 5809354 for 16 hours. After incubation, cells were harvested. Total cellular RNA was extracted and mRNA levels of the long isoform of FLIP (FLIPL), the short isoform of FLIP (FLIPS), or rRNA levels of 18S were detected by real-time RT-PCR. Data were normalized using the ΔΔCT method and expressed as the mean±SEM percent of […] expression relative to untreated controls. (B) PPC-1 cells were cultured and treated as in panel A. Total cellular protein was isolated and analyzed by SDS-PAGE immunoblotting using anti-FLIP and anti-Actin antibodies. […] Thirty hours after incubation, cell viability was determined using the MTS assay. […] After incubation, apoptosis was measured by flow cytometry to detect cell surface annexin V expression and PI. […] (E) Cells were harvested, fixed, stained with DAPI, and nuclear morphology analyzed by fluorescence microscopy. […] One week later, cells were stained with methylene blue and the number of colonies counted. […]
Quantitative RT-PCR. […]

Molecule | LD50 (μM) (PPCl, CH-11) (PPC-1 cells) | expression of FLIP mRNA (FLIP mRNA) | FLIP mRNA expression (FLIP mRNA; Example 2, PPC-1 cells, increasing concentrations, 16 hours) | IC50 (PPC-1 cells; PPC-1 cells) | toxicity when added alone relative to 5541203 (PPC-1 cells; PPC1 cells, without anti-FAS antibody) | combination Index (CI) (PPC-1 cells; combined with CH-11, median-dose combination index (Chou, 1991), synergy) | LD50 (μM) (PPCl, CH-11) (PPC-1 cells; listed as N-[4-chloro-3-(trifluoromethyl)phenyl]-3-oxobutanamide) | direct toxicity (PPC-1 cells; PPC-1 cells, compound alone, concentrations up to 80 μM)
4-(4-chloro-2-methylphenoxy)-N-hydroxybutanamide [compound 5809354] | 20+2 μM | reduced expression of FLIP mRNA | concentration-dependent decrease | – | – | – | – | –
CCn1c(=N)n(CC(=O)c2cc(C(C)(C)C)c(O)c(C(C)(C)C)c2)c2ccccc21 [compound 5569100, 1-(3,5-di-tert-butyl-4-hydroxyphenyl)-2-(3-ethyl-2-imino-2,3-dihydro-1H-benzo[d]imidazol-1-yl)ethanone hydrobromide] | 5.6 µM | did not reduce FLIP mRNA | – | 15 µM | 3 times | did not demonstrate synergy | – | –
CC(=O)CC(=O)Nc1ccc(Cl)c(C(F)(F)F)c1 [compound 6094911, N-[4-chloro-3-(trifluoromethyl)phenyl]-3-oxobutanamide] | 35+4 μM | did not reduce FLIP mRNA | – | > 100 µM | – | – | 35 ± 4 µM | little direct toxicity
